Experiments:
[1] = target: T1, rat brain COMT (Rattus norvegicus, UniProt P22734); test: In vitro COMT inhibition, rat brain homogenate (methylation of adrenaline to metanephrine); type: biochemical
T1 construct: Aliquots of 0.5 ml of liver and whole brain homogenates were preincubated; from tissue; host or cells: whole brain homogenate of male Wistar rats
T1 sequence (P22734 1-264): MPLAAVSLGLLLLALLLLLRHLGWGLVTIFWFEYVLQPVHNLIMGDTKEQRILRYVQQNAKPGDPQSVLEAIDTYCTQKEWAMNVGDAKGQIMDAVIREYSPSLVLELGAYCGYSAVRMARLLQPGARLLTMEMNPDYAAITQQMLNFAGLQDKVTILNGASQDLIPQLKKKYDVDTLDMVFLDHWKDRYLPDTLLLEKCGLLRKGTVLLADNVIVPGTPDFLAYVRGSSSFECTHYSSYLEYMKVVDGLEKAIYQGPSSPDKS

[2] = target: T2, brain COMT (Rattus norvegicus, UniProt P22734); test: Brain COMT activity in homogenates after administration of test compounds by gastric tube; type: in vivo; conditions: for % inhibition of COMT activity, brain, 0.5 h / % inhibition of COMT activity, brain, 1 h / % inhibition of COMT activity, brain, 3 h / % inhibition of COMT activity, brain, 6 h / % inhibition of COMT activity, brain, 9 h: rat brain homogenate, mean ± S.E.M., n=4; for % inhibition of COMT activity, brain, 0.5 h: 0.5 h after administration by gastric tube; for % inhibition of COMT activity, brain, 1 h: 1 h after administration by gastric tube; for % inhibition of COMT activity, brain, 3 h: 3 h after administration by gastric tube; for % inhibition of COMT activity, brain, 6 h: 6 h after administration by gastric tube; for % inhibition of COMT activity, brain, 9 h: 9 h after administration by gastric tube
T2 construct: Aliquots of 0.5 ml of liver and whole brain homogenates were preincubated; from tissue; host or cells: whole brain homogenate of male Wistar rats
T2 sequence (P22734 1-264): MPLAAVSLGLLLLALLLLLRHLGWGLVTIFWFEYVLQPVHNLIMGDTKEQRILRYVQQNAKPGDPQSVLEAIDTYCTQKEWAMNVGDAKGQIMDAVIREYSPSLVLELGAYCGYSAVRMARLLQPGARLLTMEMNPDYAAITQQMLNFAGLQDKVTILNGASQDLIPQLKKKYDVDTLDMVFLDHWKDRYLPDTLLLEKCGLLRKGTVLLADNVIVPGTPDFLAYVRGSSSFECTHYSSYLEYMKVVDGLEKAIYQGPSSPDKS

[3] = target: T3, rat liver COMT (Rattus norvegicus, UniProt P22734); test: In vitro COMT inhibition, rat liver homogenate (methylation of adrenaline to metanephrine); type: biochemical
T3 construct: Aliquots of 0.5 ml of liver and whole brain homogenates were preincubated; from tissue; host or cells: liver homogenate of male Wistar rats
T3 sequence (P22734 44-264 limits assumed): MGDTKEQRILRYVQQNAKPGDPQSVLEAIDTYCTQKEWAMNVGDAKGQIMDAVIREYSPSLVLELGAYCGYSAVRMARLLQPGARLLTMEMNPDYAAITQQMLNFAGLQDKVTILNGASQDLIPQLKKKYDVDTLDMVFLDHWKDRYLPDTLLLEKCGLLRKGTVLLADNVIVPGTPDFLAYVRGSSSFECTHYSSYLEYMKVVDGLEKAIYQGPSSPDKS

[4] = target: T4, liver COMT (Rattus norvegicus, UniProt P22734); test: Liver COMT activity in homogenates after administration of test compounds by gastric tube; type: in vivo; conditions: for % inhibition of COMT activity, liver, 0.5 h / % inhibition of COMT activity, liver, 1 h / % inhibition of COMT activity, liver, 3 h / % inhibition of COMT activity, liver, 6 h / % inhibition of COMT activity, liver, 9 h: rat liver homogenate, mean ± S.E.M., n=4; for % inhibition of COMT activity, liver, 0.5 h: 0.5 h after administration by gastric tube; for % inhibition of COMT activity, liver, 1 h: 1 h after administration by gastric tube; for % inhibition of COMT activity, liver, 3 h: 3 h after administration by gastric tube; for % inhibition of COMT activity, liver, 6 h: 6 h after administration by gastric tube; for % inhibition of COMT activity, liver, 9 h: 9 h after administration by gastric tube
T4 construct: Aliquots of 0.5 ml of liver and whole brain homogenates were preincubated; from tissue; host or cells: liver homogenate of male Wistar rats
T4 sequence (P22734 44-264 limits assumed): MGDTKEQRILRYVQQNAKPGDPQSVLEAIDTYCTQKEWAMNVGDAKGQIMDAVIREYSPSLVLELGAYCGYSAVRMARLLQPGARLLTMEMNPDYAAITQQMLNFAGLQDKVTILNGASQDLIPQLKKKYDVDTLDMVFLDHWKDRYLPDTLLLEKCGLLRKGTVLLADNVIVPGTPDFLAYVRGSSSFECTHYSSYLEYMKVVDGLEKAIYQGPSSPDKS

[5] = system: rats; test: Behavioural testing: potentiation of amphetamine-induced hyperactivity (locomotor activity, stereotypies); type: in vivo, rat; conditions: for pattern of locomotor activity and stereotyped behaviour versus corresponding controls: given p.o. six hours before amphetamine challenge (0.5, 2.0, 4.0 mg/kg s.c.)
[6] = literature values (Dingemanse 1995; Keranen 1994); cited from earlier work
[7] = substrate: CNCC(O)c1ccc(O)c(O)c1; test: cells, lysate or membranes named; conditions: saturation experiments, 95% confidence intervals, pH 7.8
[8] = COMT inhibitor 30 mg/kg p.o. 6 h before amphetamine challenge (s.c.)

With O=C(CCc1ccccc1)c1cc(O)c(O)c([N+](=O)[O-])c1 [C] the IC50 [1] was 3.1 nM, the “% inhibition of COMT activity, brain, 0.5 h” value (shortened to “% inhibition … brain, 0.5 h”) [2] was 89.9 ± 0.7% and the “% inhibition of COMT activity, brain, 1 h” value (shortened to “% inhibition … brain, 1 h”) [2] was 86.2 ± 0.5%. For the same molecule, the “% inhibition of COMT activity, brain, 3 h” value (“% inhibition … brain, 3 h” for short) [2] was 59.8 ± 5.8%, the “% inhibition of COMT activity, brain, 6 h” value (“% inhibition … brain, 6 h” below) [2] was 33.4 ± 7.0% and the “% inhibition of COMT activity, brain, 9 h” value (shortened to “% inhibition … brain, 9 h”) [2] was 0.4 ± 5.3%. The IC50 [3] was 829 nM, the “% inhibition of COMT activity, liver, 0.5 h” value (“% inhibition … liver, 0.5 h” for short) [4] was 98.4 ± 0.3% and the “% inhibition of COMT activity, liver, 1 h” value (from here on “% inhibition … liver, 1 h”) [4] was 97.8 ± 0.2%. For the same molecule, the “% inhibition of COMT activity, liver, 3 h” value (“% inhibition … liver, 3 h” below) [4] was 95.0 ± 0.7%, the “% inhibition of COMT activity, liver, 6 h” value (shortened to “% inhibition … liver, 6 h”) [4] was 70.8 ± 12.8% and the “% inhibition of COMT activity, liver, 9 h” value (“% inhibition … liver, 9 h” for short) [4] was 39.9 ± 11.1%.

In the case of O=C(c1ccccc1)c1cc(O)c(O)c([N+](=O)[O-])c1 [Compound A, 3,4-dihydroxy-5-nitrobenzophenone], the IC50 [1] is reported as 7.1 nM, the “% inhibition … brain, 0.5 h” value [2] is reported as 96.3 ± 0.4% and the “% inhibition … brain, 1 h” value [2] is reported as 96.8 ± 0.3%. For the same molecule, the “% inhibition … brain, 3 h” value [2] was 97.0 ± 0.3%, the “% inhibition … brain, 6 h” value [2] was 85.8 ± 7.5% and the “% inhibition … brain, 9 h” value [2] was 34.9 ± 6.0%. For the same molecule, the IC50 [3] was 935 nM, the “% inhibition … liver, 0.5 h” value [4] was 99.0 ± 0.2% and the “% inhibition … liver, 1 h” value [4] was 98.7 ± 0.2%. For the same molecule, the “% inhibition … liver, 3 h” value [4] was 96.9 ± 2.5%, the “% inhibition … liver, 6 h” value [4] was 80.5 ± 7.3% and the “% inhibition … liver, 9 h” value [4] was 31.7 ± 5.5%.

With O=C(Cc1ccccc1)c1cc(O)c(O)c([N+](=O)[O-])c1 [Compound B, 1-(3,4-Dihydroxy-5-nitrophenyl)-2-phenyl-1-ethanone] the “pattern of locomotor activity and stereotyped behaviour versus corresponding controls” value [5] was “same pattern of locomotor activity and stereotyped behaviour as their corresponding controls”.

In the case of O=C(CCCc1ccccc1)c1cc(O)c(O)c([N+](=O)[O-])c1 [D], the IC50 [1] is reported as 2.9 nM, the “% inhibition … brain, 0.5 h” value [2] is reported as 85.1 ± 1.7% and the “% inhibition … brain, 1 h” value [2] is reported as 69.3 ± 5.1%. For the same molecule, the “% inhibition … brain, 3 h” value [2] was 33.5 ± 4.4%, the “% inhibition … brain, 6 h” value [2] was 26.7 ± 4.0% and the “% inhibition … brain, 9 h” value [2] was 12.2 ± 5.8%. The IC50 [3] was 1850 nM, the “% inhibition … liver, 0.5 h” value [4] was 97.5 ± 0.1% and the “% inhibition … liver, 1 h” value [4] was 95.3 ± 0.8%. The “% inhibition … liver, 3 h” value [4] was 67.5 ± 7.8%, the “% inhibition … liver, 6 h” value [4] was 52.0 ± 9.5% and the “% inhibition … liver, 9 h” value [4] was 39.0 ± 13.2%.

With O=C(CCCCc1ccccc1)c1cc(O)c(O)c([N+](=O)[O-])c1 [E] the IC50 [1] was 6.7 nM, the “% inhibition … brain, 0.5 h” value [2] was 87.4 ± 1.3% and the “% inhibition … brain, 1 h” value [2] was 74.2 ± 4.2%. For the same molecule, the “% inhibition … brain, 3 h” value [2] was 25.0 ± 3.1%, the “% inhibition … brain, 6 h” value [2] was −5.6 ± 7.5% and the “% inhibition … brain, 9 h” value [2] was −6.7 ± 5.0%. For the same molecule, the IC50 [3] was 1280 nM, the “% inhibition … liver, 0.5 h” value [4] was 99.2 ± 0.1% and the “% inhibition … liver, 1 h” value [4] was 98.9 ± 0.3%. For the same molecule, the “% inhibition … liver, 3 h” value [4] was 88.1 ± 3.9%, the “% inhibition … liver, 6 h” value [4] was 36.0 ± 6.3% and the “% inhibition … liver, 9 h” value [4] was −4.0 ± 8.0%. The “inhibitory profile on brain versus liver COMT after oral administration” value ([4]; rat, comparison of brain and liver COMT inhibition (Table 2)) was “much more potent upon liver COMT than brain COMT”.

In the case of CCN(CC)C(=O)/C(C#N)=C/c1cc(O)c(O)c([N+](=O)[O-])c1 [Entacapone, (E)-2-cyano-N,N-diethyl-3-(3,4-dihydroxy-5-nitrophenyl)acrylamide], the “pattern of locomotor activity and stereotyped behaviour versus corresponding controls” value [5] is reported as “same pattern of locomotor activity and stereotyped behaviour as their corresponding controls”.

For Cc1ccc(C(=O)c2cc(O)c(O)c([N+](=O)[O-])c2)cc1 [Tolcapone, 3,4-dihydroxy4′-methyl-5-nitrobenzophenone, reference compound], the “% inhibition … brain, 0.5 h” value [2] was 98.9 ± 0.1%, the “% inhibition … brain, 1 h” value [2] was 98.7 ± 0.2% and the “% inhibition … brain, 3 h” value [2] was 97.0 ± 0.5%. For the same molecule, the “% inhibition … brain, 6 h” value [2] was 85.8 ± 8.2%, the “% inhibition … brain, 9 h” value [2] was 77.5 ± 1.8% and the “inhibition in brain and liver COMT at 6 h and 9 h after administration” value ([2]; rat, oral, 6 h and 9 h, brain and liver) was “marked inhibition”. For the same molecule, the ED50 ([2]; rat, po, read-out: ED50 for inhibiting brain COMT) was 1.6 ± 0.1 mg/kg, the “% inhibition … liver, 0.5 h” value [4] was 100.0 ± 0.0% and the “% inhibition … liver, 1 h” value [4] was 99.9 ± 0.1%. For the same molecule, the “% inhibition … liver, 3 h” value [4] was 98.0 ± 0.7%, the “% inhibition … liver, 6 h” value [4] was 94.1 ± 0.3% and the “% inhibition … liver, 9 h” value [4] was 67.0 ± 4.0%. The ED50 ([4]; rat, po, read-out: ED50 for inhibiting liver COMT) was 0.7 ± 0.1 mg/kg, the “duration of stereotyped behavior in rats given 4.0 mg/kg amphetamine” value [5, 8] was “increased two-fold” and the “locomotor activity in rats given 4.0 mg/kg amphetamine” value [5, 8] was “marked decrease in locomotor activity”. The “locomotor activity in rats treated with 0.5 and 2.0 mg/kg amphetamine” value [5, 8] was “significantly increase locomotor activity” and the half-life [6] was 2 h.

For CNCC(O)c1ccc(O)c(O)c1 (centres unmarked) [adrenaline, reference compound], the “Vmax of adrenaline O-methylation, brain” value ([1]; whole brain homogenate, saturation experiments) was 1.35±0.02 nmol mg protein^−1 h^−‘ and the “Vmax of adrenaline O-methylation, liver” value ([3]; liver homogenate, saturation experiments) was 61.6±3.8 nmol mg protein^−1 h^−‘.

For CC(N)Cc1ccccc1 (centres unmarked) [amphetamine], the “duration of stereotypies during the 600 s observation period” value ([5]; amphetamine 4.0 mg/kg s.c. alone) was 250 s and the “horizontal activity and rearing” value ([5]; amphetamine 0.5 and 2.0 mg/kg s.c. alone) was “dose-dependent increases”.

B1: rat liver COMT (Rattus norvegicus) (protein)
chain: MGDTKEQRILRYVQQNAKPGDPQSVLEAIDTYCTQKEWAMNVGDAKGQIMDAVIREYSPSLVLELGAYCGYSAVRMARLLQPGARLLTMEMNPDYAAITQQMLNFAGLQDKVTILNGASQDLIPQLKKKYDVDTLDMVFLDHWKDRYLPDTLLLEKCGLLRKGTVLLADNVIVPGTPDFLAYVRGSSSFECTHYSSYLEYMKVVDGLEKAIYQGPSSPDKS
For B1, the Km ([7]; other: liver homogenate) was 238.5 (128.5; 348.5) μM.

B2: rat brain COMT (Rattus norvegicus) (protein)
chain: MPLAAVSLGLLLLALLLLLRHLGWGLVTIFWFEYVLQPVHNLIMGDTKEQRILRYVQQNAKPGDPQSVLEAIDTYCTQKEWAMNVGDAKGQIMDAVIREYSPSLVLELGAYCGYSAVRMARLLQPGARLLTMEMNPDYAAITQQMLNFAGLQDKVTILNGASQDLIPQLKKKYDVDTLDMVFLDHWKDRYLPDTLLLEKCGLLRKGTVLLADNVIVPGTPDFLAYVRGSSSFECTHYSSYLEYMKVVDGLEKAIYQGPSSPDKS
Molecule B2 has a Km ([7]; other: whole brain homogenate) of 0.7 µM.

— patent US6512136B1, “Substituted 2-phenyl-1-(3,4-dihydroxy-5-nitrophenyl)-1-ethanones, their use in the treatment of some central and peripheral nervous system disorders and pharmaceutical compositions containing them” (Portela & C.A., S.A., priority 1998, dated 2003)
